Data: US20180185408A1, “ANTIFUNGAL NYLON-3 POLYMERS AND COMBINATION THERAPY USING THEM TO TREAT FUNGAL INFECTIONS” (priority 2016, published 2018)

Tested on: Cryptococcus neoformans
Test: MIC by broth microdilution (CLSI M27-A3)
Format: cell-based
Settings: Cryptococcus neoformans, Resistance FLU

OC(Cn1cncn1)(Cn1cncn1)c1ccc(F)cc1F [FLC, fluconazole]
MIC50 (Cryptococcus neoformans CN2): > 64 µg/mL
MIC50 (Cryptococcus neoformans CN3): > 64 µg/mL
